Consider six compounds from ChEMBL document CHEMBL1127710 (Bioorg Med Chem Lett, 1994).

Bounds are passed on as bounds.

Assay [1] has as its target T1, Phosphodiesterase 4 (Homo sapiens, UniProt P27815+Q08499+Q07343+Q08493). Put plainly: Inhibition of rolipram binding to Phosphodiesterase 4. It is filed as protein assay.
Assay [2] deals with T1, Phosphodiesterase 4. Nature of the assay: Inhibition of cAMP-specific Phosphodiesterase 4 (PDE IV). It is filed as protein assay.

As a reminder, the Kd is a measure of binding affinity in units of concentration. A low value points to tighter binding. One may read the Ki as a measure of affinity in units of concentration, obtained from inhibition or displacement. Read a high Ki as a looser hold on the target. In turn, `O=C1CC(c2cc3c(c(OC4CCCC4)c2)OCCC3)CN1` (configuration not stated) showed a Kd in assay [1] of 0.21 µM. In addition, in assay [2], the Ki was determined as 1.17 µM.

For `O=C1CC(c2ccc3c(c2)OCCO3)CN1` (configuration not stated), the Kd in assay [1] was above 100 µM. Also, the Ki in assay [2] is above 100 µM.

`O=C1CC(c2cc(OC3CCCC3)c3occc3c2)CN1` (configuration not stated) yielded a dissociation constant Kd in assay [1] of 0.03 µM. The Ki in assay [2] is 0.26 µM.

`O=C1CC(c2cc3c(c(OC4CCCC4)c2)OCC3)CN1` (configuration not stated) displayed a Kd in assay [1] of 4 µM. Moreover, in assay [2], the Ki amounted to 3.69 µM.

In assay [1], `O=C1CC(c2ccc3c(c2)OC2(CCCCC2)O3)CN1` (configuration not stated) displayed a dissociation constant Kd of 16.5 µM. Further, in assay [2], the inhibition constant Ki stood at 63.9 µM.

On to `O=C1CC(c2ccc3c(c2)OCO3)CN1` (configuration not stated), for which the dissociation constant (Kd) in assay [1] is above 100 µM. The compound also yielded a Ki in assay [2] above 100 µM.
